# Measurements taken from article PMC8041284, “Tunable Methacrylamides for Covalent Ligand Directed Release Chemistry” (Journal of the American Chemical Society, 2021).
# Target: BTK (Homo sapiens, UniProt Q06187)
# Experiment: biochemical
# Details: read-out: BTK inhibition (%)
# Chain of BTK (Q06187 402-655 limits assumed): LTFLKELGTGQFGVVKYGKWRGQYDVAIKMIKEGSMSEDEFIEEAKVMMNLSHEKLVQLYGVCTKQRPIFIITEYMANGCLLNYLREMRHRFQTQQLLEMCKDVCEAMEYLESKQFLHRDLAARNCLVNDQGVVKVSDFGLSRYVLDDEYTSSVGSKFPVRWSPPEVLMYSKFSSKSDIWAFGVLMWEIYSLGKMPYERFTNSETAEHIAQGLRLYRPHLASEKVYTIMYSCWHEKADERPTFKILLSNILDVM
row,Compound,inhibition at 10 µM [%]
1,CC(=O)Nc1ccc(OC[C@](C)(O)C(=O)Nc2ccc([N+](=O)[O-])c(C(F)(F)F)c2)cc1 [PCM-0094957],-1.4

# Same assay, conditions: read-out: BTK inhibition (%), 0.75 uM BTK, […] probe 3l, 15 min preincubation
row,Compound,inhibition at 10 µM [%]
1,COc1cc(N2CCC(N3CCN(C)CC3)CC2)ccc1Nc1ncc(Cl)c(Nc2ccccc2S(=O)(=O)C(C)C)n1 [PCM-0094890],88.5
2,Cc1nc(C(=O)NCC(=O)O)c(O)c2ccc(Oc3ccccc3)cc12 [PCM-0094891],-5.4
3,Cn1cnc2c(F)c(Nc3ccc(Br)cc3Cl)c(C(=O)NOCCO)cc21 [PCM-0094893],-6.9
4,CCc1c(C(=O)C(N)=O)c2c(OCC(=O)O)cccc2n1Cc1ccccc1 [PCM-0094894],-16.3
5,COC(=O)c1ccc2c(C(=Nc3ccc(N(C)C(=O)CN4CCN(C)CC4)cc3)c3ccccc3)c(O)[nH]c2c1 [PCM-0094897],22.1
6,Cn1cc(-c2ccc3nnc(Sc4ccc5ncccc5c4)n3n2)cn1 [PCM-0094898],-3.4
7,O=c1[nH]c(=O)n(C2CCCO2)cc1F (stereo not drawn) [PCM-0094899],-3.1
8,Nc1ncn([C@H]2C[C@H](O)[C@@H](CO)O2)c(=O)n1 [PCM-0094900],11
9,NCCC(O)(P(=O)(O)O)P(=O)(O)O [PCM-0094901],-6.8
10,Cc1ccc([N+](=O)[O-])cc1S(=O)(=O)N(C)/N=C/c1cnc2ccc(Br)cn12 [PCM-0094904],13.6
11,Cc1noc(-c2ccc(CSCCC(=O)O)cc2)c1NC(=O)OC(C)c1ccccc1Cl (stereo not drawn) [PCM-0094905],-21
12,CN(C)C/C=C/C(=O)Nc1cc2c(Nc3ccc(F)c(Cl)c3)ncnc2cc1O[C@H]1CCOC1 [PCM-0094907],84.8
13,CCn1c(-c2nonc2N)nc2c(C#CC(C)(C)O)ncc(OC[C@H]3CCCNC3)c21 [PCM-0094908],-4.1
14,CC(C)C[C@H](NC(=O)[C@H](Cc1ccccc1)NC(=O)c1cnccn1)B(O)O [PCM-0094909],8.6
15,Cn1cc(-c2ccc3nnc(C(F)(F)c4ccc5ncccc5c4)n3n2)cn1 [PCM-0094910],-1.4
16,CC(C)(F)C[C@H](N[C@@H](c1ccc(-c2ccc(S(C)(=O)=O)cc2)cc1)C(F)(F)F)C(=O)NC1(C#N)CC1 [PCM-0094912],-23.3
17,COc1cc2c(Oc3ccc4[nH]c(C)cc4c3F)ncnc2cc1OCCCN1CCCC1 [PCM-0094913],33.8
18,C=CC(=O)Nc1cc2c(Nc3ccc(F)c(Cl)c3)ncnc2cc1OCCCN1CCOCC1 [PCM-0094917],93.6
19,Cc1ccc(S(=O)(=O)Nc2nc3ccccc3nc2Nc2ccc3nsnc3c2)cc1 [PCM-0094918],-1.7

row,Compound,inhibition at 10 µM [%]
1,O=C(NOCC1CC1)c1ccc(F)c(F)c1Nc1ccc(I)cc1Cl [PCM-0094919],5.5
2,CC(C)c1ccccc1Cc1cc(C(=O)Nc2ccc(S(=O)(=O)c3ccccc3C(C)(C)C)cc2)c(O)c(O)c1O [PCM-0094924],54.5
3,Nc1ccccc1NC(=O)c1ccc(CNc2nccc(-c3cccnc3)n2)cc1 [PCM-0094926],2.8
4,COc1cc2nccc(Oc3ccc(NC(=O)Nc4cc(C)on4)c(Cl)c3)c2cc1OC [PCM-0094927],84.1
5,CCc1cccc2c3c([nH]c12)C(CC)(CC(=O)O)OCC3 (stereo not drawn) [PCM-0094929],1.4
6,COc1nc(N)nc2c1ncn2[C@@H]1O[C@H](CO)[C@@H](O)[C@@H]1O [PCM-0094930],-3.1
7,COc1ccccc1S(=O)(=O)Nc1ccc2c(c1)CN(C)C(=O)N2 [PCM-0094933],6.2
8,O=C(Nc1ccccc1-c1cn2c(CN3CCNCC3)csc2n1)c1cnc2ccccc2n1 [PCM-0094935],10.3
9,COCCn1c2c([n+](Cc3cnccn3)c1C)C(=O)c1ccccc1C2=O [PCM-0094937],-17.9
10,Nc1cccc2c1CN(C1CCC(=O)NC1=O)C2=O (stereo not drawn) [PCM-0094938],14.5
11,COc1cc(Nc2ncc3c(n2)-c2ccc(Cl)cc2C(c2c(F)cccc2OC)=NC3)ccc1C(=O)O [PCM-0094940],83.4
12,O=C(Nc1cn[nH]c1-c1nc2ccc(CN3CCOCC3)cc2[nH]1)NC1CC1 [PCM-0094942],93.8
13,CC(C)OC(=O)C(C(=O)OC(C)C)=C1SC=CS1 [PCM-0094945],3.9
14,Cc1cc2c(F)c(Oc3ncnn4cc(OC[C@@H](C)OC(=O)[C@H](C)N)c(C)c34)ccc2[nH]1 [PCM-0094946],-44.8
15,CCN(CC)C(=O)c1ccc(C2=CC3(CCNCC3)Oc3cccc(O)c32)cc1 [PCM-0094948],-14
16,Nc1nc(Cl)nc2c1ncn2[C@@H]1O[C@H](CO)[C@@H](O)[C@@H]1F [PCM-0094949],1.4
17,Nc1ccc(C(=O)Nc2cccc(-c3nc(N4CCOCC4)c4oc5ncccc5c4n3)c2)cn1 [PCM-0094950],-4.8
18,O=C(Nc1ccc(OC(F)(F)F)cc1)c1sccc1NCc1ccnc2ccccc12 [PCM-0094951],90.3
19,COc1ccc(-c2ccc3c(N4CCOCC4)nc(N4C[C@@H](C)O[C@@H](C)C4)nc3n2)cc1CO [PCM-0094955],-12.4

row,Compound,inhibition at 10 µM [%]
1,CNC(=O)c1cc(Oc2ccc(NC(=O)Nc3ccc(Cl)c(C(F)(F)F)c3)cc2)ccn1 [PCM-0094958],73.8
2,C=CCNC1=C2C[C@@H](C)C[C@H](OC)[C@H](O)[C@@H](C)/C=C(\C)[C@H](OC(N)=O)[C@@H](OC)/C=C\C=C(/C)C(=O)NC(=CC1=O)C2=O [PCM-0094959],14
3,Cc1cccc(Nc2nc(-c3ccncc3)cs2)c1 [PCM-0094960],-1.6
4,CO[C@H]1/C=C\C=C(/C)C(=O)NC2=CC(=O)C(NCCN(C)C)=C(C[C@@H](C)C[C@H](OC)[C@H](O)[C@@H](C)/C=C(\C)[C@@H]1OC(N)=O)C2=O [PCM-0094961],28.3
5,N#C/C(=C\c1ccc(O)c(O)c1)C(=O)NCc1ccccc1 [PCM-0094962],53.1
6,CC(C)(C)c1cc(C(C)(C)C)c(NC(=O)c2c[nH]c3ccccc3c2=O)cc1O [PCM-0094963],49.8
7,CC(C)(C)c1cnc(CSc2cnc(NC(=O)C3CCNCC3)s2)o1 [PCM-0094965],-6.2
8,COc1cc2c(Nc3ccc(Br)cc3F)ncnc2cc1OCC1CCN(C)CC1 [PCM-0094968],25.5
9,CCN(CCO)CCCOc1ccc2c(Nc3cc(CC(=O)Nc4cccc(F)c4)[nH]n3)ncnc2c1 [PCM-0094969],66.9
10,Nc1nc(N)c2nc(-c3cccc(O)c3)c(-c3cccc(O)c3)nc2n1 [PCM-0094971],55.2
11,CC(C)(C)c1cc(C=C(C#N)C#N)cc(Br)c1O [PCM-0094972],57.2
12,O=C1NC(=O)/C(=C/c2ccc3nccc(-c4ccncc4)c3c2)S1 [PCM-0094973],14.5
13,Cn1cnc(-c2cc3nccc(Oc4ccc(NC(=S)NC(=O)Cc5ccccc5)cc4F)c3s2)c1 [PCM-0094974],-6.9
14,COc1cc(OC)c(/C=C/S(=O)(=O)Cc2ccc(OC)c(NCC(=O)O)c2)c(OC)c1 [PCM-0094976],-2.1
15,C[C@@H](N)C1CCC(C(=O)Nc2ccncc2)CC1 (stereo partly drawn) [PCM-0094977],-2.1
16,CN(NC(=O)CC(=O)NN(C)C(=S)c1ccccc1)C(=S)c1ccccc1 [PCM-0094978],-6.9
17,CCCS(=O)(=O)Nc1ccc(F)c(C(=O)c2c[nH]c3ncc(Cl)cc23)c1F [PCM-0094979],23.4
18,Nc1ccccc1NC(=O)c1ccc(CNC(=O)OCc2cccnc2)cc1 [PCM-0094980],9.7
